Experimental data: ChEMBL document CHEMBL1201862, “PubChem BioAssay data set” (2004)
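Values below derive from 48-hour exposures of cells grown in 96-well plates, with endpoints linearly interpolated between the two concentrations bracketing the appropriate inhibition level. Here, GI50 denotes the concentration required for 50% inhibition of growth.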 The source made the active and inactive calls. No stated cut-off is given here; in the data, active = GI50 up to about 1.1 µM and inactive = higher.

What was measured:
Assay in all cases: inhibition of tumour cell growth, NCI panel, 48 h
XF498 = system: XF498
HOP-18 = system: HOP-18
DLD-1 = system: DLD-1
SNB-78 = system: SNB-78
M19-MEL = system: M19-MEL
DMS-273 = system: DMS-273
RXF 631 = system: RXF 631
LXFL 529 = system: LXFL 529
DMS-114 = system: DMS-114

Measured: GI50

COc1ccc2nc3cc(Cl)ccc3c(Sc3ccccc3[N+](=O)[O-])c2c1
inactive: XF498 29.4 µM | HOP-18 > 100 µM | DLD-1 > 100 µM | SNB-78 41.2 µM | M19-MEL > 100 µM | DMS-273 > 100 µM | RXF 631 43.9 µM | LXFL 529 > 100 µM | DMS-114 > 100 µM
